Source: patent publication US11072611B2, “Compounds and pharmaceutical compositions thereof for the treatment of inflammatory disorders” (Galapagos NV, priority 2013, dated 2021)

System: LPA 18:2
Experiment: Rat whole blood (plasma) LPA assay
Type: biochemical
Details: 2 h at 37° C., LPA 18:2 by LC-MS/MS
Experimental: Whole blood is collected from rats or mouse by exsanguinations on sodium heparin tube, then after centrifugation at 3000 rpm for 15 min at 4° C., plasma is stored at −80° C. Compounds are diluted in DMSO in concentration dependent manner then 0.5 μL are dispensed into 96-well plate placed in ice. Plasma is defrosted on ice then 49.5 μL of plasma are added into the well containing 0.5 μL of compound (1% DMSO final). Plates are covered with a lid in polypropylene and incubated at +37° C., 5% CO2, for 2 h under gentle shaking (except controls which are stored at −20° C.).
At the end of the incubation, controls are defrosted in ice and transferred in the incubated plates for LC-MS/MS analysis with a non GLP-validated method. For the analysis, plasma proteins from a 10 μL incubated plates are precipitated with an excess of methanol containing the internal standard, LPA 17:0. After centrifugation, the corresponding supernatant is injected on a C18 column. Analytes are eluted out of the column under isocratic conditions. An API5500 QTRAP mass spectrometer (ABSciex™) is used for the detection of LPA 18:2. No calibration curve is prepared for LPA 18:2, however relative quantities are evaluated based on the peak area.

Structure (SMILES)	IC50
CCc1nc2ccc(N3CCN(C(=O)[C@H](C)O)CC3)cn2c1N(C)c1nc(-c2ccc(F)cc2)cs1 [Compound 203, (S)-1-(4-(2-ethyl-3-((4-(4-fluorophenyl)thiazol-2-yl)(methyl)amino)imidazo[1,2-a]pyridin-6-yl)piperazin-1-yl)-2-hydroxypropan-1-one]	> 1000 nM
CCc1nc2ccc(C3=CCN(S(=O)(=O)CCCO)CC3)cn2c1N(C)c1nc(-c2ccc(F)cc2)cs1 [Compound 75, 3-(4-(2-ethyl-3-((4-(4-fluorophenyl)thiazol-2-yl)(methyl)amino)imidazo[1,2-a]pyridin-6-yl)-5,6-dihydropyridin-1(2H)-ylsulfonyl)propan-1-ol]	> 1000 nM
CCc1nc2ccc(N3CCN(Cc4cnc[nH]4)CC3)cn2c1N(C)c1nc(-c2ccc(F)cc2)cs1 [Compound 192, N-(6-(4-((1H-imidazol-5-yl)methyl)piperazin-1-yl)-2-ethylimidazo[1,2-a]pyridin-3-yl)-4-(4-fluorophenyl)-N-methylthiazol-2-amine]	> 1000 nM
CCc1nc2ccc(C3CCN(CC(=O)N(C)C)CC3)cn2c1N(C)c1nc(-c2ccc(F)cc2)c(C#N)s1 [Compound 145, 2-(4-(3-((5-cyano-4-(4-fluorophenyl)thiazol-2-yl)(methyl)amino)-2-ethylimidazo[1,2-a]pyridin-6-yl)piperidin-1-yl)-N,N-dimethylacetamide]	0.01 to 100 nM
CCc1nc2ccc(C3CCN(S(C)(=O)=O)CC3)cn2c1N(C)c1nc(-c2ccc(F)cc2)c(C(=O)C(F)(F)F)s1 [Compound 160, 1-(2-((2-ethyl-6-(1-(methylsulfonyl)piperidin-4-yl)imidazo[1,2-a]pyridin-3-yl)(methyl)amino)-4-(4-fluorophenyl)thiazol-5-yl)-2,2,2-trifluoroethanone]	0.01 to 100 nM
CCc1nc2ccc(C3CCN(CC(=O)N4CCCC4)CC3)cn2c1N(C)c1nc(-c2ccc(F)cc2)cs1 [Compound 115, 2-(4-(2-ethyl-3-((4-(4-fluorophenyl)thiazol-2-yl)(methyl)amino)imidazo[1,2-a]pyridin-6-yl)piperidin-1-yl)-1-(pyrrolidin-1-yl)ethanone]	0.01 to 100 nM
CCc1nc2ccc(N3CCN(CCO)CC3)cn2c1N(C)c1nc(-c2ccc(Cl)cc2)cs1 [Compound 212, 2-(4-(3-((4-(4-chlorophenyl)thiazol-2-yl)(methyl)amino)-2-ethylimidazo[1,2-a]pyridin-6-yl)piperazin-1-yl)ethanol]	> 1000 nM
CCc1nc2c(F)cc(N3CCN(CC(=O)N4CC(O)C4)CC3)cn2c1N(C)c1nc(-c2ccc(F)cc2)cs1 [Compound 14, 2-(4-(2-ethyl-8-fluoro-3-((4-(4-fluorophenyl)thiazol-2-yl)(methyl)amino)imidazo[1,2-a]pyridin-6-yl)piperazin-1-yl)-1-(3-hydroxyazetidin-1-yl)ethanone]	0.01 to 100 nM
CCc1nc2cc(F)c(N3CCN(CC(=O)N4CC(O)C4)CC3)cn2c1N(C)c1nc(-c2ccc(F)cc2)cs1 [Compound 19, 2-[4-(2-Ethyl-7-fluoro-3-{[4-(4-fluoro-phenyl)-thiazol-2-yl]-methyl-amino}-imidazo[1,2-a]pyridin-6-yl)-piperazin-1-yl]-1-(3-hydroxy-azetidin-1-yl)-ethanone]	> 1000 nM
CCc1nc2c(F)cc(N3CCN(CC(=O)NC)CC3)cn2c1N(C)c1nc(-c2ccc(F)cc2)c(C#N)s1 [Compound 13, 2-(4-(3-((5-cyano-4-(4-fluorophenyl)thiazol-2-yl)(methyl)amino)-2-ethyl-8-fluoroimidazo[1,2-a]pyridin-6-yl)piperazin-1-yl)-N-methylacetamide]	0.01 to 100 nM
CCc1nc2ccc(N3CCN(CC(=O)N4CC(O)C4)CC3)cn2c1N(C)c1nc(-c2ccc(F)cc2)c(C#N)s1 [Compound 138, 2-((2-ethyl-6-(4-(2-(3-hydroxyazetidin-1-yl)-2-oxoethyl)piperazin-1-yl)imidazo[1,2-a]pyridin-3-yl)(methyl)amino)-4-(4-fluorophenyl)thiazole-5-carbonitrile]	0.01 to 100 nM
CCc1nc2ccc(C3CCN(S(C)(=O)=O)CC3)cn2c1N(C)c1nc(-c2ccc(F)cc2)c(C#N)s1 [Compound 136, 2-((2-ethyl-6-(1-(methylsulfonyl)piperidin-4-yl)imidazo[1,2-a]pyridin-3-yl)(methyl)amino)-4-(4-fluorophenyl)thiazole-5-carbonitrile]	0.01 to 100 nM
CCc1nc2ccc(C3CCN(CC(=O)N4CC(O)C4)CC3)cn2c1N(C)c1nc(-c2ccc(F)cc2)c(C#N)s1 [Compound 141, 2-((2-ethyl-6-(1-(2-(3-hydroxyazetidin-1-yl)-2-oxoethyl)piperidin-4-yl)imidazo[1,2-a]pyridin-3-yl)(methyl)amino)-4-(4-fluorophenyl)thiazole-5-carbonitrile]	0.01 to 100 nM
CCc1nc2ccc(C3CCN(S(=O)(=O)CCN4CCOCC4)CC3)cn2c1N(C)c1nc(-c2ccc(F)cc2)cs1 [Compound 91]	> 1000 nM
CCc1nc2ccc(N3CCN(S(=O)(=O)CCCN(C)C)CC3)cn2c1N(C)c1nc(-c2ccc(F)cc2)cs1 [Compound 56, N-(6-(4-(3-(dimethylamino)propylsulfonyl)piperazin-1-yl)-2-ethylimidazo[1,2-a]pyridin-3-yl)-4-(4-fluorophenyl)-N-methylthiazol-2-amine]	> 1000 nM
CCc1nc2ccc(N3CCN(S(=O)(=O)CCCO)CC3)cn2c1N(C)c1nc(-c2ccc(F)cc2)cs1 [Compound 58, 3-(4-(2-ethyl-3-((4-(4-fluorophenyl)thiazol-2-yl)(methyl)amino)imidazo[1,2-a]pyridin-6-yl)piperazin-1-ylsulfonyl)propan-1-ol]	> 1000 nM
CCc1nc2ccc(C3=CCN(S(C)(=O)=O)CC3)cn2c1N(C)c1nc(-c2ccc(OC(F)(F)F)cc2)cs1 [Compound 72, N-(2-ethyl-6-(1-(methylsulfonyl)-1,2,3,6-tetrahydropyridin-4-yl)imidazo[1,2-a]pyridin-3-yl)-N-methyl-4-(4-(trifluoromethoxy)phenyl)thiazol-2-amine]	> 1000 nM
CCc1nc2ccc(C3CCN(CC(=O)N4CC[C@H](O)C4)CC3)cn2c1N(C)c1nc(-c2ccc(F)cc2)c(C#N)s1 [Compound 143, (S)-2-((2-ethyl-6-(1-(2-(3-hydroxypyrrolidin-1-yl)-2-oxoethyl)piperidin-4-yl)imidazo[1,2-a]pyridin-3-yl)(methyl)amino)-4-(4-fluorophenyl)thiazole-5-carbonitrile]	0.01 to 100 nM
